Data on 19 compounds can be found in patent US11072632B2, “Inhibitors of 17β-HSD1, 17β-HSD3 and 17β-HSD10” (UNIVERSITÉ LAVAL, priority 2011, dated 2021).

Read-outs that look alike come from different tables or passages of the source.

Experiment [1] addresses T1, 17β-HSD3 (Homo sapiens, UniProt P37058).
T1 construct: expressed in transfected cells; host or cells: HEK-293 (homogenate)
T1 sequence (P37058 1-310): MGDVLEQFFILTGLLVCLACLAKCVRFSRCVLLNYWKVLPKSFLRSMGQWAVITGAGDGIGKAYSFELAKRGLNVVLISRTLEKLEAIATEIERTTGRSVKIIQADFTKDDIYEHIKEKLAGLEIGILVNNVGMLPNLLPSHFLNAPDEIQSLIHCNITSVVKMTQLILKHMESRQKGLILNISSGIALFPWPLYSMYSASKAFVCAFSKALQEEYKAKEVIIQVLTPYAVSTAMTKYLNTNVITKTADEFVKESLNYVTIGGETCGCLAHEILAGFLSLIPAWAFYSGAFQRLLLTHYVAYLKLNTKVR
Kind of experiment: Inhibition of 17β-HSD3 in intact HEK-293 cells. In kind it is cell-based. As to conditions: for inhibition at 0.1 µM / inhibition at 1 µM: HEK293, 1 h.

Experiment [2] has as its target T1, 17β-HSD3. The experiment can be described thus: Inhibition of 17β-HSD3 in homogenated HEK-293 cells. In kind it is biochemical.
[3] abbreviates: Table 2 (17β-HSD3), read-out: Intact cells (%) (0.1 μM).
Setting [4] is: Table 2 (17β-HSD3), 1 μM, read-out: Intact cells (%) (1 μM).
[5] abbreviates: Table 2 (17β-HSD3), read-out: Homo (%) (0.1 μM).
The mark [6] stands for this setting: Table 2 (17β-HSD3), 1 μM, read-out: Homo (%) (1 μM).
Where [7] appears, read: Table 2 (17β-HSD3), [14C]-Δ4-dione 50 nM into [14C]-T, read-out: Homo (%) (0.01 μM).
The mark [8] stands for this setting: read-out: Intact cells (%) (1 μM), Table 2 (17β-HSD3), 1 μM.
The mark [9] stands for this setting: read-out: Homo (%) (0.1 μM), Table 2 (17β-HSD3).
Setting [10] is: read-out: Homo (%) (1 μM), Table 2 (17β-HSD3), 1 μM.

As to `C[C@]12CC[C@@]3(C[C@@H]1CC[C@@H]1[C@@H]2CC[C@]2(C)C(=O)CC[C@@H]12)CN(CCC(CN1CCOCC1)OC(=O)CCC1CCCC1)C(=O)O3` (stereo partly drawn) [Compound 4, reference compound], the inhibition at 0.1 µM in experiment [1] (read-out: Intact cells (%) (0.1 μM), Table 4) was found to be 49%; in experiment [2] (read-out: Homo (%) (0.1 μM), Table 4), 79%. Moreover, the inhibition at 0.01 µM in experiment [2] (read-out: Homo (%) (0.01 μM), Table 4) was found to be 2%. Besides, in experiment [2] (read-out: Homo (%) (1.0 μM), Table 4, 1.0 μM), the inhibition at 1 µM is 94%.

As to `CN(Cc1ccccc1)C[C@@]1(O)CC[C@@]2(C)[C@@H](CC[C@@H]3[C@@H]2CC[C@]2(C)C(=O)CC[C@@H]32)C1` [Compound 7b, (3α,5α)-3-{[benzyl(methyl)amino]methyl}-3-hydroxyandrostan-17-one], the inhibition at 0.1 µM was 48% in experiment [1] (setting [3]) and 79% in experiment [2] (setting [5]). Also, the inhibition at 1 µM in experiment [1] (setting [4]) came out at 92%; in experiment [2] (setting [6]), 89%. Also, the inhibition at 0.01 µM in experiment [2] (setting [7]) was found to be 28%.

As to `CCN(CC)C[C@@]1(O)CC[C@@]2(C)[C@@H](CC[C@@H]3[C@@H]2CC[C@]2(C)C(=O)CC[C@@H]32)C1` [Compound 7c, (3α,5α)-3-[(diethylamino)methyl]-3-hydroxyandrostan-17-one], the figures for the inhibition at 1 µM in experiment [1] (setting [4]) and in experiment [2] (setting [6]) were 14% and 60%, respectively. For the same compound, in experiment [2] (setting [5]), the inhibition at 0.1 µM is 10%. Moreover, in experiment [2] (setting [7]), the inhibition at 0.01 µM was 0%.

On to `CCCCN(CCCC)C[C@@]1(O)CC[C@@]2(C)[C@@H](CC[C@@H]3[C@@H]2CC[C@]2(C)C(=O)CC[C@@H]32)C1` [Compound 7d, (3α,5α)-3-[(dibutylamino)methyl]-3-hydroxyandrostan-17-one], for which the inhibition at 0.1 µM turned out to be 53% in experiment [1] (setting [3]) and 70% in experiment [2] (setting [5]). Moreover, the inhibition at 1 µM in experiment [1] (setting [4]) is 90%; in experiment [2] (setting [6]) it was 85%. Further, the inhibition at 0.01 µM in experiment [2] (setting [7]) stood at 13%.

As for `C[C@]12CC[C@](O)(CN3CCCCC3)C[C@@H]1CC[C@@H]1[C@@H]2CC[C@]2(C)C(=O)CC[C@@H]12` [Compound 7e, (3α,5α)-3-hydroxy-3-(piperidin-1-ylmethyl)androstan-17-one], the inhibition at 1 µM in experiment [1] (setting [8]) worked out at 23%; in experiment [2] (setting [10]), 69%. Further, the inhibition at 0.01 µM in experiment [2] (setting [7]) was 9%. For the same compound, the inhibition at 0.1 µM in experiment [2] (setting [9]) is 19%.

On to `C[C@]12CC[C@](O)(CN3CCC(Cc4ccccc4)CC3)C[C@@H]1CC[C@@H]1[C@@H]2CC[C@]2(C)C(=O)CC[C@@H]12` [Compound 7f, (3α,5α)-3-[(4-benzylpiperidin-1-yl)methyl]-3-hydroxyandrostan-17-one], for which the inhibition at 1 µM in experiment [1] (setting [8]) came out at 52%; in experiment [2] (setting [10]), 90%. For the same compound, the inhibition at 0.01 µM in experiment [2] (setting [7]) stood at 40%. The inhibition at 0.1 µM in experiment [2] (setting [9]) was 82%.

For the compound `C[C@]12CC[C@](O)(CN3CCC(N4CCCCC4)CC3)C[C@@H]1CC[C@@H]1[C@@H]2CC[C@]2(C)C(=O)CC[C@@H]12` [Compound 7g, (3α,5α)-3-(1,4′-bipiperidin-1′-ylmethyl)-3-hydroxyandrostan-17-one], the inhibition at 1 µM amounted to 20% in experiment [1] (setting [4]) and 69% in experiment [2] (setting [6]). Moreover, the inhibition at 0.1 µM in experiment [2] (setting [5]) amounted to 4%. Also, in experiment [2] (setting [7]), the inhibition at 0.01 µM was 0%.

As to `CN1CCN(C[C@@]2(O)CC[C@@]3(C)[C@@H](CC[C@@H]4[C@@H]3CC[C@]3(C)C(=O)CC[C@@H]43)C2)CC1` [Compound 7h, (3α,5α)-3-hydroxy-3-[(4-methylpiperazin-1-yl)methyl]androstan-17-one], the inhibition at 0.1 µM in experiment [1] (setting [3]) was 2%; in experiment [2] (setting [5]) it was 0%. Moreover, the inhibition at 1 µM in experiment [2] (setting [6]) was 40%. For the same compound, the inhibition at 0.01 µM in experiment [2] (setting [7]) came to 0%.

Consider `C[C@]12CC[C@](O)(CN3CCN(c4ccccc4)CC3)C[C@@H]1CC[C@@H]1[C@@H]2CC[C@]2(C)C(=O)CC[C@@H]12` [Compound 7i, (3α,5α)-3-hydroxy-3-[(4-phenylpiperazin-1-yl)methyl]androstan-17-one], for which the inhibition at 1 µM in experiment [1] (setting [8]) is 68%; in experiment [2] (setting [10]), 89%. The inhibition at 0.01 µM in experiment [2] (setting [7]) came to 13%. For the same compound, the inhibition at 0.1 µM in experiment [2] (setting [9]) amounted to 78%.

Turning to `C[C@]12CC[C@](O)(CN3CCN(Cc4ccc(C(F)(F)F)cc4)CC3)C[C@@H]1CC[C@@H]1[C@@H]2CC[C@]2(C)C(=O)CC[C@@H]12` [Compound 10c, (3α,5α)-3-hydroxy-3-({4-[4-(trifluoromethyl)benzyl]piperazin-1-yl}methyl)androstan-17-one], the inhibition at 0.1 µM in experiment [1] (Table 3, read-out: Intact cells (%) (0.1 μM)) worked out at 33%; in experiment [2] (Table 3, read-out: Homo (%) (0.1 μM)), 81%. Besides, the inhibition at 0.01 µM in experiment [2] (Table 3, read-out: Homo (%) (0.01 μM)) worked out at 14%.

For the compound `C[C@]12CC[C@](O)(CN3CCN(Cc4cc(C(F)(F)F)ccc4C(F)(F)F)CC3)C[C@@H]1CC[C@@H]1[C@@H]2CC[C@]2(C)C(=O)CC[C@@H]12` [Compound 10h, (3α,5α)-3-({4-[2,5-bis(trifluoromethyl)benzyl]piperazin-1-yl}methyl)-3-hydroxyandrostan-17-one], in experiment [1] (Table 3), the “Intact cells (%) (0.1 μM)” value was 12%. Further, in experiment [2] (Table 3), the “Homo (%) (0.01 μM)” value was determined as 18% and the “Homo (%) (0.1 μM)” value is listed as 85%.

For `C[C@]12CC[C@](O)(CN3CCN(Cc4ccc(C(F)(F)F)cc4C(F)(F)F)CC3)C[C@@H]1CC[C@@H]1[C@@H]2CC[C@]2(C)C(=O)CC[C@@H]12` [Compound 10i, (3α,5α)-3-({4-[2,4-bis(trifluoromethyl)benzyl]piperazin-1-yl}methyl)-3-hydroxyandrostan-17-one], the “Intact cells (%) (0.1 μM)” value in experiment [1] (Table 3) came to 16%. Also, in experiment [2] (Table 3), the “Homo (%) (0.01 μM)” value turned out to be 22% and the “Homo (%) (0.1 μM)” value was found to be 75%.

Take `C[C@]12CC[C@](O)(CN3CCN(Cc4cc(C(F)(F)F)cc(C(F)(F)F)c4)CC3)C[C@@H]1CC[C@@H]1[C@@H]2CC[C@]2(C)C(=O)CC[C@@H]12` [Compound 10j, (3α,5α)-3-({4-[3,5-bis(trifluoromethyl)benzyl]piperazin-1-yl}methyl)-3-hydroxyandrostan-17-one]: the “Intact cells (%) (0.1 μM)” value in experiment [1] (Table 3) came out at 25%. Moreover, in experiment [2] (Table 3), the “Homo (%) (0.01 μM)” value came to 25% and the “Homo (%) (0.1 μM)” value is recorded as 83%.

Turning to `CC1CN(C[C@@]2(O)CC[C@@]3(C)[C@@H](CC[C@@H]4[C@@H]3CC[C@]3(C)C(=O)CC[C@@H]43)C2)C(C)CN1Cc1cc(C(F)(F)F)ccc1C(F)(F)F` (stereo partly drawn) [Compound 11h, (3α,5α)-3-({(2ξ,5ξ)-4-[2,5-bis(trifluoromethyl)benzyl]-2,5-dimethylpiperazin-1-yl}methyl)-3-hydroxyandrostan-17-one], the “Intact cells (%) (0.1 μM)” value in experiment [1] (Table 3) stood at 23%. Also, in experiment [2] (Table 3), the “Homo (%) (0.01 μM)” value amounted to 16% and the “Homo (%) (0.1 μM)” value is on record as 71%.

For the compound `CC1CN(CC2(O)CCC3(C)C(CCC4C5CCC(=O)C5(C)CCC43)C2)C(C)CN1Cc1ccc(C(F)(F)F)cc1C(F)(F)F` (stereo not drawn) [Compound 11i, (3α,5α)-3-({(2ξ,5ξ)-4-[2,4-bis(trifluoromethyl)benzyl]-2,5-dimethylpiperazin-1-yl}methyl)-3-hydroxyandrostan-17-one], in experiment [1] (Table 3), the “Intact cells (%) (0.1 μM)” value turned out to be 21%. In addition, in experiment [2] (Table 3), the “Homo (%) (0.01 μM)” value was 15% and the “Homo (%) (0.1 μM)” value is 71%.

`CC1CN(C[C@@]2(O)CC[C@@]3(C)[C@@H](CC[C@@H]4[C@@H]3CC[C@]3(C)C(=O)CC[C@@H]43)C2)C(C)CN1Cc1cc(C(F)(F)F)cc(C(F)(F)F)c1` (stereo partly drawn) [Compound 11j, (3α,5α)-3-({(2ξ,5ξ)-4-[3,5-bis(trifluoromethyl)benzyl]-2,5-dimethylpiperazin-1-yl}methyl)-3-hydroxyandrostan-17-one]: in experiment [1] (Table 3), the “Intact cells (%) (0.1 μM)” value came out at 16%. Besides, in experiment [2] (Table 3), the “Homo (%) (0.01 μM)” value turned out to be 25% and the “Homo (%) (0.1 μM)” value turned out to be 74%.

As for `C[C@]12CC[C@](O)(CN3CCN(C(=O)c4ccccc4)CC3)C[C@@H]1CC[C@@H]1[C@@H]2CC[C@]2(C)C(=O)CC[C@@H]12` [Compound 12a, (3α,5α)-3-hydroxy-3-{[4-(phenylcarbonyl)piperazin-1-yl]methyl}androstan-17-one], the inhibition at 0.1 µM in experiment [1] (read-out: Intact cells (%) (0.1 μM), Table 3) came to 50%; in experiment [2] (read-out: Homo (%) (0.1 μM), Table 3), 76%. Further, the inhibition at 0.01 µM in experiment [2] (read-out: Homo (%) (0.01 μM), Table 3) was 17%.

For `C[C@]12CC[C@](O)(CN3CCN(C(=O)C4CCCCC4)CC3)C[C@@H]1CC[C@@H]1[C@@H]2CC[C@]2(C)C(=O)CC[C@@H]12` [Compound 12b, (3α,5α)-3-{[4-(cyclohexylcarbonyl)piperazin-1-yl]methyl}-3-hydroxyandrostan-17-one], the “Intact cells (%), tested at 1 μM” value in experiment [1] (Table 3, footnote b, 1 μM) is “N/A (70)^b %”. In experiment [2] (Table 3), the “Homo (%) (0.01 μM)” value turned out to be 19% and the “Homo (%) (0.1 μM)” value is 75%.

In experiment [1] (intact HEK-293 cells overexpressing 17β-HSD3, [14C]-Δ4-dione 50 nM), `C[C@]12CCC(=O)C=C1CC[C@@H]1[C@@H]2CC[C@]2(C)C(=O)CC[C@@H]12` [Δ^4-dione, 4-androstene-3,17-dione, reference compound] yielded a half-inhibitory concentration (IC50) of 0.337 µM.
